Measurements from patent publication US9540664B2, “Systems and methods for improving ethanol yield” (POET Research, Inc, priority 2011, dated 2017).
Where two headings read alike, the source gives them in different places.

Legend:
[1] = tested on: yeast; settings: 320 gal per 720,000 gal or 250 gal per 550,000 gal fermentor, added 1.5 hours into fill, 36% dry solids
Protocol: In commercial ethanol production facilities, acetic acid is thought to be inhibitory to yeast growth and fermentation. […] The dosage of acetic acid used is 320 gal per 720,000 gal fermentor or 250 gal per 550,000 gal fermentor and the acetic acid is added at 1.5 hours into fill of the fermentor (which would be about 1 hour after yeast inoculation from the yeast conditioning tank). […] A few batches were conducted with added acetic acid (primed) and a few batches were operated normally without additional acetic acid.

[2] = tested on: yeast; settings: 24 hours at 88° F.
Protocol: The samples were serially diluted and appropriate dilutions were plated on to Yeast extract-Malt extract (YM) agar plates. The plates were incubated at 30° C. and the colonies formed were counted after 48 h. The results were expressed as colony forming units (CFU) per mL.
Samples tested include a control with no acetic acid addition, and samples treated at 1200 ppm and 2400 ppm respectively.

[3] = tested on: yeast; settings: 20% w/v sucrose
Protocol: For this example, a laboratory media with sucrose was used. The media used was Yeast extract-Peptone (YP) broth supplemented with 20% w/v (200 g/L) sucrose. An acetic acid dose response (at 500, 1000, 1500, 2000, 2500, and 3000 ppm) was conducted. Control with no added acetic acid was also included. The fermenters were pH adjusted to 4.5 and after yeast inoculation the fermentations were carried out for 30 hours at 32° C. After 30 h, samples were withdrawn and analyzed for sugars, organic acids, and ethanol. Samples were also withdrawn at 24 h and yeast growth was monitored by optical density measurement at 600 nm.

[4] = tested on: yeast
Protocol: The entire experiment was conducted in duplicate.
In this experiment, corn that was ground using a hammer mill to >90% fines was obtained from a nearby biorefinery. […] The slurry (˜70 mL) was prepared by weighing out the appropriate amount of corn and water into each individual reactor. Lactoside247™ was added at 2.5 ppm to prevent any lactic acid bacterial contamination. Urea was added ˜0.24 g/L (4 mM) for a nitrogen source.
A raw starch hydrolyzing enzyme blend was added at 0.2 g/L. Everything was added to the reactor in such a way that the final volume in the reactor was 70 mL. […] (88° F.). […] (82° F.). Samples were withdrawn at 0, 24, 48, 72, and 88 hr of fermentation and analyzed for sugars, glycerol, organic acids and ethanol using HPLC.
About 4 mL of sample was withdrawn at each time point. These samples were centrifuged at 4500 rpm for 2 min. The supernatant was then filtered through a 0.2 μpore size filter into HPLC vials. […] An aliquot (5 μL) of the sample was injected by the auto-injector onto a reverse phase column (HPX-87H from BioRad Laboratories) maintained at 50° C. Aqueous sulfuric acid at 0.005M was used as the mobile phase (eluent). […] The components (sugars, organic acids, and ethanol) were identified and quantified using Waters Empower software.

Structure (SMILES): CC(=O)O [acetic acid]
- ethanol production, primed vs no priming [1]: increased ethanol production
- glycerol production, primed vs no priming [1]: decreases glycerol production significantly
- reduction in cell counts ([2]; initial acetic acid 1200 ppm): About 24%
- reduction in cell counts ([2]; initial acetic acid 2400 ppm): ~32%
- effect on ethanol conversion efficiency ([3]; above 2500 ppm acetic acid, pH 4.5): inhibitory to fermentation
- effect on ethanol conversion efficiency ([3]; initial acetic acid between 2000 and 2500 ppm, pH 4.5, 30 hours at 32° C): stimulatory effect
- effect on ethanol titers ([4]; 0.12% to 0.24% (1200-2400 ppm) acetic acid, initial pH 4.7 or 5.2): increased ethanol titers
- effect on ethanol production ([4]; highest concentration tested 0.37% w/v, especially at pH 4.2): inhibitory effect
- effect on ethanol production ([4]; initial pH 4.2): No major benefits
- maximum reduction in glycerol ([4]; initial pH 4.7, initial acetic acid 0.24% w/v): over 50%
- highest ethanol titer ([4]; initial pH 4.7, initial acetic acid 0.24% w/v, 36% dry solids, 88 hr fermentation): 20.5 % v/v
